Reference: PubChem BioAssay (NCI)
“And” between values parts separate entries of the source, which are not always exact repeats. Equal values may be shown once.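 Test compounds were applied to cells in 96-well plates for 48 hours at 5 doses. At the GI50, growth is halved. TGI: total growth inhibition.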

Columns and labels:
Assay in all cases: NCI tumour cell line growth inhibition, 48 h
LXFL 529 NSCLC = system: LXFL 529 NSCLC
DMS 273 small cell lung = system: DMS 273 small cell lung
M19-MEL melanoma = system: M19-MEL melanoma
DLD-1 colon = system: DLD-1 colon
XF 498 CNS = system: XF 498 CNS
DMS 114 small cell lung = system: DMS 114 small cell lung
RXF-631 renal = system: RXF-631 renal
MCF7 breast = system: MCF7 breast
SN12K1 renal = system: SN12K1 renal
P388 leukemia = system: P388 leukemia
MDA-N = system: MDA-N
P388/ADR leukemia = system: P388/ADR leukemia

`N/N=C(\c1nc2ccc(Cl)cc2[nH]c1=O)C(O)c1ccc(Cl)c(Cl)c1` (stereo unspecified) gave a TGI (LXFL 529 NSCLC) of over 100 µM, a TGI (DMS 273 small cell lung) of over 100 µM and a TGI (M19-MEL melanoma) of over 100 µM. It also gave a TGI (DLD-1 colon) of over 100 µM, a TGI (XF 498 CNS) of over 100 µM and a TGI (DMS 114 small cell lung) of over 100 µM. The TGI (RXF-631 renal) was over 100 µM.
For `Cc1cc(C)c(C(=O)O)c(SSc2cc(C)cc(C)c2C(=O)O)c1`, the TGI (LXFL 529 NSCLC) was over 100 µM, the TGI (DMS 273 small cell lung) was over 100 µM and the TGI (M19-MEL melanoma) was over 100 µM. The TGI (DLD-1 colon) was over 100 µM, the TGI (XF 498 CNS) was over 100 µM and the TGI (DMS 114 small cell lung) was over 100 µM. The TGI (RXF-631 renal) was over 100 µM.
`O=C1CNC(=O)c2[nH]cnc2N1` showed a TGI (LXFL 529 NSCLC) of over 100 µM, a TGI (DMS 273 small cell lung) of over 100 µM and a TGI (M19-MEL melanoma) of over 100 µM. For the same compound, the TGI (DLD-1 colon) was over 100 µM, the TGI (XF 498 CNS) was over 100 µM and the TGI (DMS 114 small cell lung) was over 100 µM. The TGI (RXF-631 renal) was over 100 µM.
Compound `CO[C@H]1C[C@](C)(O)Cc2cc3c(c(O)c21)C(=O)c1c(O)cc2c(c1C3=O)O[C@@H]1O[C@@]2(C)[C@H](O)[C@@H](N(C)C)[C@@H]1O` has a TGI (MCF7 breast) of 8.86 µM, a TGI (LXFL 529 NSCLC) of 7.33 µM and a GI50 (DMS 273 small cell lung) of 0.188 µM. For the same compound, the TGI (DMS 273 small cell lung) was 2.79 µM and 3.32 µM, the TGI (SN12K1 renal) was 2.15 µM and the TGI (P388 leukemia) was 3.3 µM. For the same compound, the TGI (M19-MEL melanoma) was 2.56 µM and 9.81 µM, the GI50 (DLD-1 colon) was 1.67 µM and the TGI (DLD-1 colon) was 4.08 µM and 22.3 µM. For the same compound, the GI50 (XF 498 CNS) was 1.15 µM, the TGI (XF 498 CNS) was 2.51 µM and 0.689 µM and the TGI (MDA-N) was 10.6 µM. For the same compound, the GI50 (DMS 114 small cell lung) was 0.533 µM, the TGI (DMS 114 small cell lung) was 2.32 µM and 1.71 µM and the TGI (P388/ADR leukemia) was 16.1 µM. It also gave a TGI (RXF-631 renal) of 2.71 µM.
For `CCCCCCCCCCCCCCCCOP(=O)([O-])OCC[N+](C)(C)C`, the GI50 (MCF7 breast) was 3.62 µM, the TGI (MCF7 breast) was 16 µM and 59.1 µM and the TGI (DMS 273 small cell lung) was 25.8 µM. It also gave a TGI (P388 leukemia) of over 66.3 µM, a TGI (M19-MEL melanoma) of 41.3 µM and a TGI (DLD-1 colon) of 62.2 µM. For the same compound, the TGI (XF 498 CNS) was 60.9 µM, the TGI (MDA-N) was 54.8 µM and the TGI (DMS 114 small cell lung) was over 100 µM. The TGI (P388/ADR leukemia) was over 86.6 µM.
With `Cc1cccc(C)c1N1C(=O)C(=O)C(c2nc3ccccc3s2)/C(=N/NC(=O)c2ccccc2O)C1=O` (stereo unspecified) the TGI (LXFL 529 NSCLC) was over 100 µM, the TGI (DMS 273 small cell lung) was 22.5 µM and the TGI (M19-MEL melanoma) was over 100 µM. The TGI (DLD-1 colon) was over 100 µM, the TGI (XF 498 CNS) was over 100 µM and the TGI (DMS 114 small cell lung) was 60.9 µM. For the same compound, the TGI (RXF-631 renal) was over 100 µM.
With `COc1ccc2c(c1)NC1(O)c3ccccc3C(=O)C21O` (stereo unspecified) the TGI (LXFL 529 NSCLC) was over 100 µM, the TGI (DMS 273 small cell lung) was over 100 µM and the TGI (M19-MEL melanoma) was over 100 µM. The TGI (DLD-1 colon) was over 100 µM, the TGI (XF 498 CNS) was over 100 µM and the TGI (DMS 114 small cell lung) was over 100 µM. The TGI (RXF-631 renal) was over 100 µM.
